Measured values taken from the supplement of paper PMC10307832.

Legend:
Assay in all cases: relative viability (nuclei count vs DMSO), 5 days (fraction); higher = more cells survive
Dovitinib + Pictilisib = compound: CN1CCN(c2ccc3nc(-c4c(N)c5c(F)cccc5[nH]c4=O)[nH]c3c2)CC1 [Dovitinib] + CS(=O)(=O)N1CCN(Cc2cc3nc(-c4cccc5[nH]ncc45)nc(N4CCOCC4)c3s2)CC1 [Pictilisib] (partner 1 µM)
In short: (§1)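 For relative viability, nuclei counts in treated wells were divided by those in vehicle wells. Lung cancer cell lines had been pin-tool dosed in 1536-well plates the day after seeding and cultured for 5 days, then fixed and stained in one step (final 0.05% Triton X-100, 1% formaldehyde, 1 ug/ml Hoechst) and imaged at 4×. Doses were one drug alone or a fixed anchor-drug dose plus five library-drug doses (not always all listed) in √10 steps, and values are duplicate-plate medians.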

Dovitinib + Phenformin = compound: CN1CCN(c2ccc3nc(-c4c(N)c5c(F)cccc5[nH]c4=O)[nH]c3c2)CC1 [Dovitinib] + N=C(N)NC(=N)NCCc1ccccc1 [Phenformin] (partner 250 µM)
In short: as §1

Dovitinib + Palbociclib = compound: CN1CCN(c2ccc3nc(-c4c(N)c5c(F)cccc5[nH]c4=O)[nH]c3c2)CC1 [Dovitinib] + CC(=O)c1c(C)c2cnc(Nc3ccc(N4CCNCC4)cn3)nc2n(C2CCCC2)c1=O [Palbociclib] (partner 0.5 µM)
In short: as §1

Dovitinib + Decitabine = compound: CN1CCN(c2ccc3nc(-c4c(N)c5c(F)cccc5[nH]c4=O)[nH]c3c2)CC1 [Dovitinib] + Nc1ncn([C@H]2C[C@H](O)[C@@H](CO)O2)c(=O)n1 [Decitabine] (partner 2 µM)
In short: as §1

Row | Cell Line | relative viability (Dovitinib + Pictilisib; first compound 0.02 µM) | relative viability (Dovitinib + Pictilisib; first compound 0.06325 µM) | relative viability (Dovitinib + Pictilisib; first compound 0.2 µM) | relative viability (Dovitinib + Pictilisib; first compound 0.6325 µM) | relative viability (Dovitinib + Pictilisib; first compound 2 µM) | relative viability (Dovitinib + Phenformin; first compound 0.02 µM) | relative viability (Dovitinib + Phenformin; first compound 0.06325 µM) | relative viability (Dovitinib + Phenformin; first compound 0.2 µM) | relative viability (Dovitinib + Phenformin; first compound 0.6325 µM) | relative viability (Dovitinib + Phenformin; first compound 2 µM) | relative viability (Dovitinib + Palbociclib; first compound 0.02 µM) | relative viability (Dovitinib + Palbociclib; first compound 0.06325 µM) | relative viability (Dovitinib + Palbociclib; first compound 0.2 µM) | relative viability (Dovitinib + Palbociclib; first compound 0.6325 µM) | relative viability (Dovitinib + Palbociclib; first compound 2 µM) | relative viability (Dovitinib + Decitabine; first compound 0.02 µM) | relative viability (Dovitinib + Decitabine; first compound 0.06325 µM) | relative viability (Dovitinib + Decitabine; first compound 0.2 µM) | relative viability (Dovitinib + Decitabine; first compound 0.6325 µM) | relative viability (Dovitinib + Decitabine; first compound 2 µM)
1 | LOU-NH91 | 0.523 | 0.553 | 0.526 | 0.518 | 0.535 | 0.826 | 0.666 | 0.748 | 0.785 | 0.775 | 0.526 | 0.528 | 0.535 | 0.553 | 0.525 | 0.817 | 0.812 | 0.817 | 0.816 | 0.813
2 | LU99A | 0.312 | 0.323 | 0.336 | 0.359 | 0.34 | 0.814 | 0.811 | 0.926 | 0.86 | 0.864 | 0.388 | 0.37 | 0.387 | 0.423 | 0.406 | 0.759 | 0.762 | 0.965 | 0.981 | 0.904
3 | NCI-H1395 | 0.563 | 0.518 | 0.651 | 0.783 | 0.612 | 0.455 | 0.415 | 0.488 | 0.445 | 0.462 | 0.608 | 0.575 | 0.661 | 0.605 | 0.652 | 0.719 | 0.668 | 0.747 | 0.713 | 0.696
4 | NCI-H460 | 0.32 | 0.26 | 0.342 | 0.335 | 0.344 | 0.488 | 0.563 | 0.517 | 0.49 | 0.498 | 0.147 | 0.226 | 0.159 | 0.163 | 0.142 | 0.464 | 0.518 | 0.456 | 0.494 | 0.432
5 | 201T | 0.725 | 0.692 |  | 0.702 | 0.658 | 0.449 | 0.42 | 0.463 | 0.409 | 0.459 | 0.366 | 0.379 | 0.341 | 0.371 | 0.367 | 0.817 | 0.857 | 0.839 | 0.844 | 0.871
6 | NCI-H1944 | 0.325 | 0.332 | 0.335 | 0.33 | 0.36 | 0.216 | 0.198 | 0.244 | 0.202 | 0.217 | 0.305 | 0.356 | 0.323 | 0.346 | 0.308 | 0.388 | 0.374 | 0.455 | 0.454 | 0.434
7 | NCI-H2405 | 0.431 | 0.372 | 0.458 | 0.456 | 0.408 | 0.389 | 0.345 | 0.448 | 0.331 | 0.446 | 0.511 | 0.516 | 0.546 | 0.504 | 0.556 | 0.714 | 0.745 | 0.832 | 0.688 | 0.845
8 | NCI-H1703 | 0.215 | 0.24 | 0.294 | 0.232 | 0.208 |  |  |  |  |  |  |  |  |  |  |  |  |  |  | 
9 | NCI-H1755 | 0.494 | 0.399 | 0.465 | 0.452 | 0.46 | 0.625 | 0.601 | 0.617 | 0.591 | 0.657 | 0.47 | 0.427 | 0.479 | 0.463 | 0.471 | 0.679 | 0.736 | 0.756 | 0.723 | 0.677
